Molecular target: Acetylcholinesterase (Electrophorus electricus, UniProt O42275)
Experiment: Inhibition of electric eel AChE by Ellman's method

Sequence of Acetylcholinesterase (O42275 whole entry): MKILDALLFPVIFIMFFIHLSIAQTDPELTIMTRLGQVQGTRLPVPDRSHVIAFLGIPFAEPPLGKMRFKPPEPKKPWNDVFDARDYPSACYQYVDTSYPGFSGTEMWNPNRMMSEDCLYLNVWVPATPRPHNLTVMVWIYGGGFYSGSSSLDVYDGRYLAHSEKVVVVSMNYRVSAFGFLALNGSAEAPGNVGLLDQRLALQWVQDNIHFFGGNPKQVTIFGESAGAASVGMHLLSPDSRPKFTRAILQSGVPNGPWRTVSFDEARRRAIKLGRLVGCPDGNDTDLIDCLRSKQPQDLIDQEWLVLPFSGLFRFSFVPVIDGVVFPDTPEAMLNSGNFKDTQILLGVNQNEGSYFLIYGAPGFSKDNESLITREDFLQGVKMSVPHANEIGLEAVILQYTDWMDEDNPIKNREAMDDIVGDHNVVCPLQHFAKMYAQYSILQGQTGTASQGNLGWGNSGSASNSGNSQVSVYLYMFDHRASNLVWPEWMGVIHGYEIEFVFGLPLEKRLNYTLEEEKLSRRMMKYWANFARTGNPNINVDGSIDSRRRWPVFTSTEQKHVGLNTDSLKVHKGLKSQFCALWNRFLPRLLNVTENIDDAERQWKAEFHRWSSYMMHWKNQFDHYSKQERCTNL

Row | SMILES | IC50 [µM]
1 | C/C=C1/CN(C)[C@H]2Cc3c([nH]c4ccccc34)C(=O)C[C@H]1[C@@H]2C(=O)OC [VOBASINE] | > 1000
2 | CC[C@H]1C[C@@H]2CN3CCc4c([nH]c5ccc(O)cc45)[C@](C(=O)OC)(C2)[C@H]13 | 29
3 | CC[C@H]1C[C@@H]2CN3CCc4c([nH]c5ccc(OC)cc45)[C@](C(=O)OC)(C2)[C@H]13 [VOACANGINE] | 4.4
4 | COC(=O)[C@@]12C[C@@H]3C[C@H]([C@H](C)O)[C@@H]1N(CC[C@]1(O)C2=Nc2ccccc21)C3 [HEYNEANINE HYDROXYINDOLENINE] | > 1000
5 | CC[C@H]1C[C@@H]2CN3CCc4c([nH]c5ccccc45)[C@](C(=O)OC)(C2)[C@H]13 [CORONARIDINE] | 8.6
6 | COC(=O)[C@@]12C[C@@H]3C[C@H]([C@H](C)O)[C@@H]1N(CCc1c2[nH]c2ccc(OC)cc12)C3 [VOACRISTINE] | 420
7 | CC[C@H]1C[C@@H]2CN3CC[C@]4(O)C(=Nc5ccccc54)[C@](C(=O)OC)(C2)[C@H]13 [CORONARIDINE HYDROXYINDOLENINE] | > 1000
8 | COC(=O)[C@@]12C[C@@H]3C[C@H]([C@@H](C)O)[C@@H]1N(CCc1c2[nH]c2ccc(OC)cc12)C3 [19(R)-HEYNEANINE] | 730
